In patent US6210917A, “Method for suppressing multiple drug resistance in cancer cells” (priority 1997, dated 2001):

Assays:
[1] = tested on: MTAse competent MOLT-4 cells; test: growth restoration by MTAse substrates after L-alanosine (FIG. 3); format: cell-based
[2] = tested on: MTAse deficient CEM cells; test: as above; format: cell-based
[3] = tested on: MTAse deficient A549 cells; test: as above; format: cell-based
[4] = tested on: MTAse competent A427 cells; test: as above; format: cell-based
[5] = tested on: melanoma; conditions: Phase II, melanoma patients; cited from earlier work
[6] = tested on: A427 NSCLC cells; test: tumor xenograft in nude mice, MTAP-positive A427 cells (FIG. 5); format: in vivo, Balb/c athymic nude mice; conditions: i.p. every 12 hours; 15 mg/kg per injection 7 days then 22.5 mg/kg 5 days
Method: (§1) 10^7 A549 or A427 NSCLC cells were injected subcutaneously into 6-week old Balb/c athymic nude mice. When tumors had reached approximately 0.4 cm diameter, treatment was begun with L-alanosine or saline by intraperitoneal injection every 12 hours. Mice received 15 mg/kg per injection for 7 days then 22.5 mg/kg for 5 days. Tumor size was measured as the product of perpendicular diameters. The results for treated (n=6 [sample size] for each cell type) vs. control (n=4 [sample size] for each cell type) mice are shown in FIG. 5.

[7] = cited from earlier work
[8] = tested on: MES-SA/Dx5 cells; test: growth of MES-SA/Dx5 drug resistant cells with L-alanosine and other agents; format: cell-based; conditions: data not shown
[9] = humans, intravenous, cited from earlier work
[10] = tested on: MTAse deficient H292 cells; test: proliferation in presence of L-alanosine with MTA or adenine added (FIG. 2); format: cell-based; conditions: L-alanosine 40 μM
[11] = tested on: breast cancer; conditions: breast cancer patients; cited from earlier work
[12] = tested on: MV522Q6 cells; test: growth of MDR cells by reduction of a tetrazolium dye (FIG. 1A); format: cell-based, human; conditions: 10 μM; for sensitivity of the resistant cell line to chemotherapy: MV522Q6 compared with MV522, three days
Method: MV522 is a human cancer cell line; MV522Q6 is a variant of the cell line with MDR. Each cell line was grown in a monolayer as and contacted with 10 μM of a chemotherapeutic agent and/or L-alanosine (as shown in FIGS. 1A and 1B). Growth, or the lack thereof, was measured in each population of cells by reduction of a tetrazolium dye after three days in culture.
FIG. 1A is a graph depicting the effect of L-alanosine and different chemotherapeutic agents (vinblastine and taxol) on a MDR cancer cell line (MV522Q6). FIG. 1B is a graph depicting the effect of the same drugs on the cell line before acquisition of resistance (MV522). […] However, the adenine synthesis inhibitor L-alanosine is nearly 10 times as potent in the resistant cell line than the other agents tested.

[13] = tested on: human cancers; conditions: cited from earlier work
[14] = tested on: A549 NSCLC cells; test: tumor xenograft in nude mice, MTAP-deficient A549 cells (FIG. 5); format: in vivo, Balb/c athymic nude mice; conditions: i.p. every 12 hours; 15 mg/kg per injection 7 days then 22.5 mg/kg 5 days
Method: as §1

[15] = toxicity / body weight of nude mice in xenograft study; format: in vivo, Balb/c athymic nude mice
Method: 10^7 A549 or A427 NSCLC cells were injected subcutaneously into 6-week old Balb/c athymic nude mice. When tumors had reached approximately 0.4 cm diameter, treatment was begun with L-alanosine or saline by intraperitoneal injection every 12 hours.
Mice received 15 mg/kg per injection for 7 days then 22.5 mg/kg for 5 days. Tumor size was measured as the product of perpendicular diameters. The results for treated (n=6 [sample size] for each cell type) vs. control (n=4 [sample size] for each cell type) mice are shown in FIG. 5.

[16] = tested on: MTAse competent cancers; conditions: cited from earlier work
[17] = tested on: MES-SA/Dx5 cells; conditions: cited from earlier work

C[C@H]1O[C@@H](n2cnc3c(N)ncnc32)[C@H](O)[C@@H]1O [5'-deoxyadenosine]
growth restoration [1]: growth restoration | growth restoration [2]: remained growth inhibited | growth restoration [3]: remained growth inhibited | growth restoration [4]: growth restoration

N[C@@H](CN(O)N=O)C(=O)O [L-alanosine]
therapeutic response [5]: little therapeutic response observed | effect on growth of MTAP-positive cells [6]: no effect on the growth | dose limiting toxicity ([7]; continuous infusion about 125 mg/m^2 for 5 days, adults, acute non-lymphoblastic leukemia, phase II): mucositis | toxicity after multiple bolus dosing ([7]; multiple bolus dosing): Stomatitis and esophagitis | dose-limiting toxicity ([7]; prior clinical trials): renal toxicity, stomatitis, esophagitis | reactions with lesser frequency ([7]; prior clinical trials): myelosuppression, headache, nausea and hypo- or hypertension | dose at which renal toxicity occurred ([7]; single bolus dosing): above 4 g/m^2 body weight | dose at which two pediatric patients suffered liver failure ([7]; two pediatric patients, separate doses): about 350 mg/m^2 body weight per day | effect on drug resistant cell line vs other agents tested [8]: significantly more affected by L-alanosine than by the other agents tested | plasma clearance [9]: biphasic | t1/2α ([9]; plasma, biphasic, approximate): ~14 min | t1/2β ([9]; plasma, biphasic, approximate): ~99 min | inability to proliferate in the presence of L-alanosine despite MTA ([10]; H292 compared with Calu-6, with MTA): selective inability of MTAse deficient NSCLC cells to proliferate | objective responses [11]: no objective responses observed | potency of L-alanosine in the resistant cell line relative to the other agents tested ([12]; MV522Q6 (MDR), three days in culture): ~10 times | potency in the resistant cell line vs the non-resistant cell line ([12]; MV522Q6 vs MV522): as, if not more, potent in the resistant cell line than in the non-resistant cell line | overall response rate ([13]; Phase II studies, Creagan et al.): 4% | efficacy for treatment of human cancers ([13]; Tyagi and Cooney 1984): little encouragement | size of well-established MTAP-deficient tumors [14]: decrease in the size | toxicity ([15]; 15 and 22.5 mg/kg per injection, i.p. every 12 hours): No toxicity was evident | body weight ([15]; throughout testing): stable weights | success in clinical trials [16]: no appreciable success

Nc1ncnc2nc[nH]c12 [adenine]
proliferation of control cultures containing adenine ([10]; control cultures with adenine (Calu-6 / H292)): proliferate despite L-alanosine

CC(=O)O[C@H]1C(=O)[C@@]2(C)[C@H]([C@H](OC(=O)c3ccccc3)[C@]3(O)C[C@H](OC(=O)[C@H](O)[C@@H](NC(=O)c4ccccc4)c4ccccc4)C(C)=C1C3(C)C)[C@]1(OC(C)=O)CO[C@@H]1C[C@@H]2O [taxol]
resistance level to chemotherapeutic agents [17]: highly resistant | sensitivity of the resistant cell line to chemotherapy [12]: greatly reduced

CC[C@]1(O)C[C@@H]2CN(CCc3c([nH]c4ccccc34)[C@@](C(=O)OC)(c3cc4c(cc3OC)N(C)[C@H]3[C@@](O)(C(=O)OC)[C@H](OC(C)=O)[C@]5(CC)C=CCN6CC[C@]43[C@@H]65)C2)C1 [vinblastine]
resistance level to chemotherapeutic agents [17]: highly resistant | sensitivity of the resistant cell line to chemotherapy [12]: greatly reduced
